Assay results as given in patent US20260262643A1, “HERBICIDAL BENZOXAZINES” (FMC CORPORATION, priority 2022, published 2026).

How the values were obtained:
ryegrass, Italian [1] = experiment: Test C postemergence; type: in vivo, Lolium multiflorum; conditions: Postemergence, 1000 g ai/ha
Outline: (§1)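 Visual injury ratings on a 0–100 scale (100 = complete control) were made against untreated controls 10 days after treatment in the greenhouse. Compounds, formulated with surfactant in non-phytotoxic solvent, were sprayed on soil preemergence or onto one- to two-leaf plants 2–10 cm tall postemergence.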

Pigweed, Redroot [2] = experiment: Test C postemergence; type: in vivo, Amaranthus retroflexus; conditions: 1000 g ai/ha
Text: (§2) Seeds of plant species selected from barnyardgrass (Echinochloa crusgalli), blackgrass (Alopecurus myosuroides), corn (Zea mays), foxtail, giant (giant foxtail, Setaria faberi), green foxtail (Setaria viridis), goosegrass (Eleusine indica), kochia (Bassia scoparia), oat, wild (wild oat, Avena fatua), pigweed, palmer (palmer amaranth, palmer pigweed, Amaranthus palmeri), Pigweed, Redroot (redroot pigweed, Amaranthus retroflexus), ragweed (common ragweed, Ambrosia artemisiifolia), ryegrass, Italian ([…] ryegrass, Lolium multiflorum), soybean (Glycine max), and wheat (Triticum aestivum) were planted into a blend of loam soil and sand and treated preemergence with a directed soil spray using test chemicals formulated in a non-phytotoxic solvent mixture which included a surfactant. At the same time, plants selected from these crops and weed species and also galium (catchweed bedstraw, Galium aparine) and horseweed (Erigeron canadensis) were planted in pots containing the same blend of loam soil and sand and treated with postemergence applications of test chemicals formulated in the same manner. Plants ranged in height from 2 to 10 cm and were in the one- to two-leaf stage for the postemergence treatment. Treated plants and untreated controls were maintained in a greenhouse for 10 days, after which time all treated plants were compared to untreated controls and visually evaluated for injury. Plant response ratings, summarized in Table C, are based on a 0 to 100 scale where 0 is no effect and 100 is complete control. A dash (-) response means no test result.

foxtail, giant [3] = experiment: Test C preemergence; type: in vivo, Setaria faberi; conditions: Preemergence, 1000 g ai/ha; visual rating after 10 days, 0 to 100 scale (0 no effect, 100 complete control)
Outline: as §1

ragweed [4] = experiment: Test C postemergence; type: in vivo, Ambrosia artemisiifolia; conditions: Postemergence, 1000 g ai/ha
Outline: as §1

barnyardgrass [5] = experiment: Test C preemergence; type: in vivo, Echinochloa crusgalli; conditions: Preemergence, 1000 g ai/ha; visual rating after 10 days, 0 to 100 scale (0 no effect, 100 complete control)
Outline: as §1

ragweed [6] = experiment: Test C preemergence; type: in vivo, Ambrosia artemisiifolia; conditions: Preemergence, 1000 g ai/ha; visual rating after 10 days, 0 to 100 scale (0 no effect, 100 complete control)
Outline: as §1

blackgrass = experiment: Test C postemergence; type: in vivo, Alopecurus myosuroides; conditions: Postemergence, 1000 g ai/ha
Outline: as §1

ryegrass, Italian [7] = experiment: Test C preemergence; type: in vivo, Lolium multiflorum; conditions: Preemergence, 1000 g ai/ha; visual rating after 10 days, 0 to 100 scale (0 no effect, 100 complete control)
Outline: as §1

corn = experiment: Test C postemergence; type: in vivo, Zea mays; conditions: Postemergence, 1000 g ai/ha
Outline: as §1

barnyardgrass [8] = experiment: Test C postemergence; type: in vivo, Echinochloa crusgalli; conditions: Postemergence, 1000 g ai/ha
Outline: as §1

Pigweed, Redroot [9] = experiment: Test C preemergence; type: in vivo, Amaranthus retroflexus; conditions: 1000 g ai/ha, visual rating after 10 days, 0 to 100 scale (0 no effect, 100 complete control)
Text: as §2

kochia [10] = experiment: Test C postemergence; type: in vivo, Bassia scoparia; conditions: Postemergence, 1000 g ai/ha
Outline: as §1

kochia [11] = experiment: Test C preemergence; type: in vivo, Bassia scoparia; conditions: Preemergence, 1000 g ai/ha; visual rating after 10 days, 0 to 100 scale (0 no effect, 100 complete control)
Outline: as §1

wheat = experiment: Test C postemergence; type: in vivo, Triticum aestivum; conditions: Postemergence, 1000 g ai/ha
Outline: as §1

foxtail, giant [12] = experiment: Test C postemergence; type: in vivo, Setaria faberi; conditions: Postemergence, 1000 g ai/ha
Outline: as §1

galium = experiment: Test C postemergence; type: in vivo, Galium aparine; conditions: Postemergence, 1000 g ai/ha
Outline: as §1

[13] = 0 to 100 scale, 0 no effect, 100 complete control
[14] = 10 days, visual 0 to 100 scale (0 no effect, 100 complete control)

Compound | Plant response rating, Ryegrass, Italian (ryegrass, Italian [1]; [13]) | Plant response rating, Pigweed, Redroot (Pigweed, Redroot [2]; [13]) | Plant response rating, Foxtail, Giant (foxtail, giant [3]) | Plant response rating, Ragweed (ragweed [4]; [13]) | Plant response rating, Barnyardgrass (barnyardgrass [5]) | Plant response rating, Ragweed (ragweed [6]) | Plant response rating, Ryegrass, Italian (ryegrass, Italian [7]) | Plant response rating, Barnyardgrass (barnyardgrass [8]; [13]) | Plant response rating, Pigweed, Redroot (Pigweed, Redroot [9]) | Plant response rating, Kochia (kochia [10]; [13]) | Plant response rating, Kochia (kochia [11]) | Plant response rating, Wheat (wheat; [13]) | Plant response rating, Foxtail, Giant (foxtail, giant [12]; [13]) | Plant response rating, Galium (galium; [13]) | also measured
CC1(C)CN(C(=O)c2ccnc(-n3cncn3)c2)c2ccccc2O1 [Compound 202] | 0 | 0 | 0 | 0 | 0 | 0 | 0 | 0 | 0 | 0 | 0 | 30 | 0 | 0 | pest or weed control at 1000 g/ha (blackgrass; Alopecurus myosuroides, post-emergence, 240 h, 0 to 100 scale, 0 no effect, 100 complete control, read-out: Plant response rating, Blackgrass): 0%; Corn plant response rating (crop injury, 0 = no effect, 100 = complete kill) at 1000 g/ha (corn; Zea mays, post-emergence, 240 h, 0 to 100 scale, 0 no effect, 100 complete control): 0%
CCC1CN(C(=O)c2ccnc(-c3cccnc3)c2)c2cccc(Cl)c2O1 (racemic) [Compound 286] | – | – | 0 | – | 0 | 0 | 0 | – | 0 | – | 0 | – | – | – | Plant response rating, Ryegrass, Italian (ryegrass, Italian [1]; [14]): 0; Plant response rating, Pigweed, Redroot (Pigweed, Redroot [2]; [14]): 0; Plant response rating, Ragweed (ragweed [4]; [14]): 0; Plant response rating, Blackgrass (blackgrass; [14]): 0; Plant response rating, Corn (corn; [14]): 0; Plant response rating, Barnyardgrass (barnyardgrass [8]; [14]): 0; Plant response rating, Kochia (kochia [10]; [14]): 0; Plant response rating, Wheat (wheat; [14]): 0; Plant response rating, Foxtail, Giant (foxtail, giant [12]; [14]): 0; Plant response rating, Galium (galium; [14]): 0
CC1CN(C(=O)c2ccnc(-c3ccccn3)c2)c2cccc(Cl)c2O1 (stereo not drawn) [Compound 198] | 0 | 0 | 0 | 0 | 10 | 0 | 0 | 20 | 0 | 0 | 0 | 20 | 0 | 0 | Plant response rating, Blackgrass (blackgrass; [13]): 0; Plant response rating, Corn (corn; [13]): 0
